The test system of data set [1] is EGFP reporter cells (C2C12 cells). Nature of the data set: EGFP-SSA assay: uptake of Cas9 protein/gRNA complex into cells (EGFP positive rate). It is filed as cell-based, mouse. As to conditions: for Compound activity: EGFP positive rate (%): Example 1, compound 250.0 mM, reaction solution 1 (550 mM sodium chloride, 1 mM HEPES, Cas9 protein/gRNA), 30 minutes; for EGFP positive rate (activity) with different (B) salts: Example 3, reaction solutions 3-1 to 3-6: 250 mM GABA, 50 mM HEPES, salt varied, FIG. 7.
Description: EGFP-SSA assay: an abbreviation of EGFP-single strand annealing assay. The reporter cassette shown in FIG. 1 is inserted in EGFP reporter cells. In the middle of the EGFP sequence of the cassette, MmDMD-Ex51 sequence is inserted. Since the presence of MmDMD-Ex51 sequence, by which EGFP ORF is divided, EGFP protein is not usually translated. However, when target sequence of MmDMD-Ex51 is cleaved by Cas9 protein/gRNA complex, the upstream region (EG part) and the downstream region (FP part) of EGFP ORF are annealed via a homology area into a single strand, with the result that a full-length EGFP ORF emerges to produce EGFP protein. Based on this principle, the ratio of the number of cells producing EGFP is checked by the EGFP-SSA assay. In this manner, the amount of Cas9 protein/gRNA complex delivered to cells can be predicted.
(§1) Cas9 protein (0.4 μg), tracrRNA (34.18 ng), MmDmd Ex51 crRNA (29.48 ng), a 1 M HEPES buffer (0.05 μL) and a 5 M aqueous sodium chloride solution (5.5 μL) were mixed and diluted with UltraPure DNase/RNase-Free Distilled Water up to a liquid volume of 37.5 μL so as to obtain final concentrations: 8 ng/μL Cas9 protein, 0.68 ng/μL tracrRNA, 0.59 ng/μL MmDmd Ex51 crRNA, 1 mM HEPES, 550 mM sodium chloride, and 250 mM compound. To this solution, a 1000 mM compound solution (12.5 μL) was added and the solution mixture was incubated at normal temperature for 15 minutes.
as §1, with “buffer (2.5” for “buffer (0.05”, “solution (4.85” for “solution (5.5”, “crRNA, 50” for “crRNA, 1”, “HEPES, 485” for “HEPES, 550”, “minutes. Note that, in the cases where the final concentrations of the compound are 0.69 mM, 25 mM, 100 mM, 125 mM, 160 mM, 200 mM and 500 mM, the compound stock solution was diluted with UltraPure DNase/RNase-Free Distilled Water up to concentrations of 2.76 mM, 100 mM, 400 mM, 500 mM, 640 mM, 800 mM and 2000 mM, respectively, and then, added. […]” for “minutes.”
Cas9 protein (2.0 μg), tracrRNA (170.9 ng), MmDmd Ex51 crRNA (147.4 ng), a 1 M HEPES buffer (12.5 μL), a 5 M aqueous sodium chloride solution (18.35 μL) and a 1 M aqueous GABA solution (62.5 μL) were mixed, diluted with UltraPure DNase/RNase-Free Distilled Water up to a liquid volume of 250 μL so as to obtain final concentrations: 8 ng/μL Cas9 protein, 0.68 ng/μL tracrRNA, 0.59 ng/μL MmDmd Ex51 crRNA, 50 mM HEPES, 250 mM GABA and 367 mM sodium chloride, and incubated at normal temperature for 15 minutes. Note that the addition amount of the 5 M aqueous sodium chloride solution was changed to 24.25 μL in the case of 485 mM sodium chloride and the addition amount was changed to 27.5 μL in the case of 550 mM sodium chloride, respectively.

The test system is the same in data set [2]. Nature of the data set: Number of HOECHST cells detected (cell viability) in the EGFP-SSA assay. As to conditions: Example 1, formula (2).
Description: To each of the solutions, a complex of gRNA and Cas9 protein was further dissolved. Mouse myoblasts (C2C12 cells) were contacted with each of the solutions in vitro, and target gene cleavage activity and cell viability were evaluated.
For data set [3] the test system is unchanged. Nature of the data set: EGFP-SSA assay: uptake of Cas9 protein/gRNA complex into cells (EGFP positive rate). Type of data set: cell-based, mouse. As to conditions: for Compound activity: EGFP positive rate (%): reaction solution 1 (550 mM sodium chloride, 1 mM HEPES, Cas9 protein/gRNA), 30 minutes; for EGFP positive rate: Example 4, compound 250 mM, FIG. 8.

[4] abbreviates: compound 250.0 mM vs 250 mM GABA positive control on the same plate.
The mark [5] stands for this setting: compound 500.0 mM vs 250 mM GABA positive control on the same plate.
Where [6] appears, read: compound 200.0 mM vs 250 mM GABA positive control on the same plate.
Where [7] appears, read: compound 125.0 mM vs 250 mM GABA positive control on the same plate.

With `O=P(O)(O)O[C@H]1O[C@H](CO)[C@@H](O)[C@H](O)[C@H]1O` [α-D-Glucose-1-phosphate], in data set [1], the “Compound activity: EGFP positive rate (%)” value (from here on “Compound activity … (%)”) is 2.52%. In data set [2] (setting [4]), the “Relative ratio to GABA: Number of HOECHST cells” value (“Relative ratio to GABA: Number” below) came out at 1.29.
As to `O=C(O)CCC(O)C(=O)O` (stereo not shown) [2-Hydroxyglutaric acid], in data set [1], the “Compound activity … (%)” value worked out at 1.89%. For the same molecule, in data set [2] (setting [4]), the “Relative ratio to GABA: Number” value is on record as 0.83.
As for `CC(C)(CO)[C@@H](O)C(=O)NCCC(=O)O` [Calcium pantothenate], the “Compound activity … (%)” value in data set [3] (Example 1, compound 160.0 mM) is on record as 0.25%. The “Relative ratio to GABA: Number” value in data set [2] (compound 160.0 mM vs 250 mM GABA positive control on the same plate) was 1.50.
Regarding `O=C(O)[C@@H]1CC(O)CN1` (stereo partly shown) [4-Hydroxyproline], in data set [3] (Example 1, compound 500.0 mM), the “Compound activity … (%)” value is recorded as 35.82%. Further, in data set [2] (setting [5]), the “Relative ratio to GABA: Number” value came out at 0.62.
Consider `NCCCC(=O)O` [GABA, γ-aminobutyric acid, reference compound], for which the EGFP positive rate in data set [1] (Example 4, sodium chloride 550 mM, compound 250 mM, FIG. 8) is given as 1.4%; in data set [3] (sodium chloride 150 mM), “less than 1%”; in data set [3] (sodium chloride 350 mM), “less than 1%”. The “Compound activity … (%)” value in data set [3] (Example 1, compound 200.0 mM) turned out to be 1.39%. In addition, the “Relative ratio to GABA: Number” value in data set [2] (setting [6]) is recorded as 1.00.
On to `CC(O)CCO` (stereo not shown) [1,3-Butylene glycol], for which, in data set [3] (Example 1, compound 0.69 mM), the “Compound activity … (%)” value is given as 3.62%. Besides, in data set [2] (compound 0.69 mM vs 250 mM GABA positive control on the same plate), the “Relative ratio to GABA: Number” value is on record as 1.03.
For the molecule `OC[C@H]1O[C@@H](O[C@H]2[C@H](O)[C@@H](O)[C@H](O)O[C@@H]2CO)[C@H](O)[C@@H](O)[C@@H]1O` [D(+)-cellobiose], in data set [3] (Example 1, compound 200.0 mM), the “Compound activity … (%)” value is on record as 1.18%. The “Relative ratio to GABA: Number” value in data set [2] (setting [6]) is given as 1.00.
`OCCN1C[C@H](O)[C@@H](O)[C@H](O)[C@H]1CO` [Miglitol]: in data set [3] (Example 1, compound 125.0 mM), the “Compound activity … (%)” value is 1.55%. The “Relative ratio to GABA: Number” value in data set [2] (setting [7]) amounted to 0.83.
Consider `O=C(O)[C@H](O)[C@@H](O)[C@H](O)[C@H](O)COP(=O)(O)O` [6-Phospho-D-gluconic acid], for which, in data set [1], the “Compound activity … (%)” value turned out to be 2.61%. Moreover, the “Relative ratio to GABA: Number” value in data set [2] (setting [4]) turned out to be 1.31.
Taken in the same sequence, the figures for `Cn1cnc(C[C@H](N)C(=O)O)c1` [1-Methyl-L-histidine] were 3.54% and 0.68.
As to `CNC(=O)NC` [1,3-Dimethylurea], the “Compound activity … (%)” value in data set [3] (Example 1, compound 500.0 mM) was found to be 2.64%. Moreover, in data set [2] (setting [5]), the “Relative ratio to GABA: Number” value amounted to 0.68.
In the case of `[Cl-].[Na+]` [sodium chloride], the “EGFP positive rate (activity) with different (B) salts” value in data set [1] is given as “almost the same activity”.
As to `CN1CC(=O)NC1=N` [Creatinine], the “Relative ratio to GABA: EGFP positive rate (%)” value in data set [3] (Example 1, compound 200.0 mM vs 250 mM GABA positive control on the same plate, formula (1)) worked out at 2.50. Also, the “Compound activity … (%)” value in data set [3] (Example 1, compound 200.0 mM) was determined as 2.27%. Besides, in data set [2] (setting [6]), the “Relative ratio to GABA: Number” value stood at 0.84.
As for `CC(C)C(=O)C(=O)O` [Sodium 3-methyl-2-oxobutate], the “Compound activity … (%)” value in data set [3] (Example 1, compound 200.0 mM) was determined as 1.71%. For the same molecule, the “Relative ratio to GABA: Number” value in data set [2] (setting [6]) stood at 0.53.
Consider `[Cl-].[Cl-].[Mg+2]` [magnesium chloride], for which, in data set [1], the “EGFP positive rate (activity) with different (B) salts” value is given as “almost the same activity”.
As to `O=c1ccn([C@H]2C[C@H](O)[C@@H](CO)O2)c(=O)[nH]1` [2′-Deoxyuridine], the “Compound activity … (%)” value in data set [3] (Example 1, compound 100.0 mM) is reported as 1.10%. For the same molecule, the “Relative ratio to GABA: Number” value in data set [2] (compound 100.0 mM vs 250 mM GABA positive control on the same plate) worked out at 0.88.
As to `Nc1cc[nH]c(=O)n1` [Cytosine], the “Compound activity … (%)” value in data set [3] (Example 1, compound 25.0 mM) was determined as 0.61%. Besides, the “Relative ratio to GABA: Number” value in data set [2] (compound 25.0 mM vs 250 mM GABA positive control on the same plate) is 0.77.
Turning to `Nc1ccn([C@@H]2O[C@H](CO)[C@@H](O)[C@H]2O)c(=O)n1` [Cytidine], in data set [3] (Example 1, compound 125.0 mM), the “Compound activity … (%)” value was found to be 2.24%. In addition, in data set [2] (setting [7]), the “Relative ratio to GABA: Number” value is recorded as 1.58.
Taken in the same sequence, the figures for `NCCC(=O)N[C@@H](Cc1cnc[nH]1)C(=O)O` [L-Carnosine] were 1.76% and 0.98.

Values taken from patent US12673022B2, “Drug delivery system using solution” (Kyoto University, priority 2018, dated 2026).
